Data on twelve compounds can be found in paper PMC8071163, “Design and Synthesis of 2,6-Disubstituted-4′-Selenoadenosine-5′-N,N-Dimethyluronamide Derivatives as Human A3 Adenosine Receptor Antagonists” (Pharmaceuticals, 2021).

The structures appear in SMILES notation.

In test [1] the target is T1, hA3AR (Homo sapiens, UniProt P0DMS8).
T1 sequence (P0DMS8 1-318): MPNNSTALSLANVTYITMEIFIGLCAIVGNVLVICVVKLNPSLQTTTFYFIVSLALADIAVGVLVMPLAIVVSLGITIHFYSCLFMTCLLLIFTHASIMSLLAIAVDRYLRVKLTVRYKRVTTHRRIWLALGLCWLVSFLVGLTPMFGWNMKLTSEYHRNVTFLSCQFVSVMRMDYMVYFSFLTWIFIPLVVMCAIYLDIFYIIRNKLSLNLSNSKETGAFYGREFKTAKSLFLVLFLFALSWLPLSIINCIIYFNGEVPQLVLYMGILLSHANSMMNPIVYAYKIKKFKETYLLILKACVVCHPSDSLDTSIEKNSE
As to the kind of experiment: Radioligand competition binding assay at hA3AR ([3H]NECA). Details: expressed in transfected cells; host or cells: HeLa-A3 cell line (membranes prepared in laboratory). The settings on record: 0.5 nM [3H]NECA; mean ± SEM (n = 2); read-out: Affinity, Ki, hA3AR. Background: Displacement assays read how much labelled ligand stays bound in the presence of the test substance.

Another test deals with T2, hA1AR (Homo sapiens, UniProt P30542).
T2 construct: host or cells: CHO-A1 cells (membranes)
T2 sequence (P30542 1-326): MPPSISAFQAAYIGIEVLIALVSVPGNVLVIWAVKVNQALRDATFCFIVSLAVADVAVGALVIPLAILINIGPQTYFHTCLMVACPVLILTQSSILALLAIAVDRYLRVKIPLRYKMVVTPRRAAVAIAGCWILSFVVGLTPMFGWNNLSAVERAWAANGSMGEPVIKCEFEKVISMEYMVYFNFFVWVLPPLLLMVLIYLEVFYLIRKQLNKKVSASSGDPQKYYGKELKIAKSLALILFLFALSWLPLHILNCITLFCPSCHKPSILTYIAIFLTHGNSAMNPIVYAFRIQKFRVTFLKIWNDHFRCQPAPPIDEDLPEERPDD
The test can be described thus: Radioligand competition binding assay at hA1AR ([3H]DPCPX). On the procedure:
Adenosine A1 receptor competition binding experiments were carried out in membranes from CHO-A1 cells (Euroscreen, Gosselies, Belgium). On the day of assay, membranes were defrosted and re-suspended in incubation buffer 20 mM Hepes, 100 mM NaCl, 10 mM MgCl2, 2 UI/mL adenosine deaminase (pH = 7.4). Each reaction well of a GF/C multiscreen plate (Millipore, Madrid, Spain), prepared in duplicate, contained 15 μg of protein, 2 nM [^3H]DPCPX and test compound. Nonspecific binding was determined in the presence of 10 μM (R)-PIA. The reaction mixture was incubated at 25 °C for 60 min, after which samples were filtered and measured in a microplate beta scintillation counter (Microbeta Trilux, Perkin Elmer, Madrid, Spain).

The target in another test is T3, hA2AAR (Homo sapiens, UniProt P29274).
T3 construct: expressed in transfected cells; host or cells: HeLa-A2A cells (membranes)
T3 sequence (P29274 whole entry): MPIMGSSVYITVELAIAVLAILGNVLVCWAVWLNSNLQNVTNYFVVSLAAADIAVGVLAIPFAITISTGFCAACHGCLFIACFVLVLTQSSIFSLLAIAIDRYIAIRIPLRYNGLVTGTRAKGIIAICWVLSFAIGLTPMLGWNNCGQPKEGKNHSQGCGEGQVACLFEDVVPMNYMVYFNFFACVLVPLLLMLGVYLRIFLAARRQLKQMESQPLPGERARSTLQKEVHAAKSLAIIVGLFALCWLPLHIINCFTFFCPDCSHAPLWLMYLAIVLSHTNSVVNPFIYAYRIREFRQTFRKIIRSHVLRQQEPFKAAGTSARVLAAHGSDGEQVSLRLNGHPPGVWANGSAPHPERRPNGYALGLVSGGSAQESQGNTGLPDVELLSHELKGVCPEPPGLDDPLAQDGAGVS
The test can be described thus: Radioligand competition binding assay at hA2AAR ([3H]ZM241385). Here is the method: Adenosine A2A receptor competition binding experiments were carried out in membranes from HeLa-A2A cells. On the day of assay, membranes were defrosted and re-suspended in incubation buffer 50 mM Tris-HCl, 1 mM EDTA, 10 mM MgCl2 and 2 UI/mL adenosine deaminase (pH = 7.4). Each reaction well of a GF/C multiscreen plate (Millipore, Madrid, Spain), prepared in duplicate, contained 10 μg of protein, 3 nM [^3H]ZM241385 and test compound. Nonspecific binding was determined in the presence of 50 μM NECA. The reaction mixture was incubated at 25 °C for 30 min, after which samples were filtered and measured in a microplate beta scintillation counter (Microbeta Trilux, Perkin Elmer, Madrid, Spain).

The target of the next test is T4, hA2BAR (Homo sapiens, UniProt P29275).
T4 construct: host or cells: HEK-293-A2B cells (membranes)
T4 sequence (P29275 1-332): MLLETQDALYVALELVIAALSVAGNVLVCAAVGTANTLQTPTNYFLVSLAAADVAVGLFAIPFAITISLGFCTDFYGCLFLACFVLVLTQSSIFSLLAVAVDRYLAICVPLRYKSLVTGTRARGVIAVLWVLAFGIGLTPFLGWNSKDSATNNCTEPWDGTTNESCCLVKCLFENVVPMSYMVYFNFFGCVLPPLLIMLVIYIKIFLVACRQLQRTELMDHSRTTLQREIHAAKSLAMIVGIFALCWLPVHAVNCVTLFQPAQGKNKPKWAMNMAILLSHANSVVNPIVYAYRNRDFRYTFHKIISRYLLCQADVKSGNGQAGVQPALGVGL
As to the kind of experiment: Radioligand competition binding assay at hA2BAR ([3H]DPCPX). On the procedure: Adenosine A2B receptor competition binding experiments were carried out in membranes from HEK-293-A2B cells (Euroscreen, Gosselies, Belgium) prepared following the provider’s protocol. On the day of assay, membranes were defrosted and re-suspended in incubation buffer 50 mM Tris-HCl, 1 mM EDTA, 10 mM MgCl2, 0.1 mM benzamidine, 10 μg/mL bacitracine and 2 UI/mL adenosine deaminase (pH = 6.5). Each reaction well prepared in duplicate contained 18 μg of protein, 35 nM [^3H]DPCPX and test compound. Nonspecific binding was determined in the presence of 400 μM NECA. The reaction mixture was incubated at 25 °C for 30 min, after which samples were filtered through a multiscreen GF/C microplate and measured in a microplate beta scintillation counter (Microbeta Trilux, Perkin Elmer, Madrid, Spain).

Test [2] deals with T1, hA3AR. The test can be described thus: Cyclic AMP accumulation functional assay at hA3AR expressed in CHO cells. Details: expressed in transfected cells. Format: cell-based. Here is the method: Human adenosine A3 receptor functional experiments were carried out in CHO-A3#18 cell line. The day before the assay, the cells were seeded on the 96-well culture plate (Falcon 353072, Corning, Glendale, AZ, USA). The cells are washed with wash buffer (Dulbecco’s modified eagle’s medium nutrient mixture F-12 ham (Sigma D8062), 25 mM Hepes; pH = 7.4). Wash buffer is replaced by incubation buffer (Dulbecco’s modified eagle’s medium nutrient mixture F-12 ham (Sigma D8062), 25 mM Hepes, 30 μM Rolipram (Sigma R6520); pH = 7.4). Test compounds and MRS1220 as reference compound (Sigma M228) are added and the cells incubated at 37 °C for 15 min. After, 0.1 μM of 5′-N-ethylcarboxamido-adenosine (NECA) (Sigma E2387) is added and the cells incubated at 37 °C for 10 min. Forskolin (Sigma F3917, Sigma-Aldrich, St. Louis, MO, USA) is added and incubated at 37 °C for 5 min. After incubation, the amount of cAMP is determined using a cAMP Biotrak Enzymeimmunoassay (EIA) System Kit (GE Healthcare RPN225, GE Healthcare, Chicago, IL, USA).

One may read the Ki as the equilibrium dissociation constant of an inhibitor or competing ligand from its target. One may read the inhibition as the drop in the measured response relative to a control, in per cent.

Turning to `CN(C)C(=O)[C@H]1[Se][C@@H](n2cnc3c(N)ncnc32)[C@H](O)[C@@H]1O` [Compound 9a, (2S,3S,4R,5R)-5-(6-amino-9H-purin-9-yl)-3,4-dihydroxy-N,N-dimethyltetra hydroselenophene-2-carboxamide], on hA3AR [1], the inhibition constant (Ki) was 3710 ± 600 nM. Moreover, the inhibition at 10 µM at hA1AR was 16%; on hA2AAR it was 22%; on hA2BAR, 17%.

On to `CNc1ncnc2c1ncn2[C@@H]1[Se][C@H](C(=O)N(C)C)[C@@H](O)[C@H]1O` [Compound 9b, (2S,3S,4R,5R)-3,4-dihydroxy-N,N-dimethyl-5-(6-(methylamino)-9H-purin-9-yl)tetrahydroselenophene-2-carboxamide], for which, at hA3AR [1], the Ki is 609 ± 47 nM. Moreover, the results for the inhibition at 10 µM at hA1AR, on hA2AAR and at hA2BAR were 9%, 3% and 9%, respectively.

Regarding `CN(C)C(=O)[C@H]1[Se][C@@H](n2cnc3c(NCc4cccc(F)c4)ncnc32)[C@H](O)[C@@H]1O` [Compound 9c, (2S,3S,4R,5R)-5-(6-((3-fluorobenzyl)amino)-9H-purin-9-yl)-3,4-dihydroxy-N,N-dimethyltetrahydroselenophene-2-carboxamide], the Ki at hA3AR [1] amounted to 2020 ± 170 nM. The results for the inhibition at 10 µM on hA1AR, at hA2AAR and at hA2BAR were 13%, 12% and 19%, respectively.

With `CN(C)C(=O)[C@H]1[Se][C@@H](n2cnc3c(NCc4cccc(Cl)c4)ncnc32)[C@H](O)[C@@H]1O` [Compound 9d, (2S,3S,4R,5R)-5-(6-((3-chlorobenzyl)amino)-9H-purin-9-yl)-3,4-dihydroxy-N,N-dimethyltetrahydroselenophene-2-carboxamide], on hA3AR [1], the inhibition constant Ki is 1190 ± 160 nM. The values for the inhibition at 10 µM at hA1AR, on hA2AAR and on hA2BAR were 23%, 4% and 15%, respectively.

For `CN(C)C(=O)[C@H]1[Se][C@@H](n2cnc3c(NCc4cccc(Br)c4)ncnc32)[C@H](O)[C@@H]1O` [Compound 9e, (2S,3S,4R,5R)-5-(6-((3-bromobenzyl)amino)-9H-purin-9-yl)-3,4-dihydroxy-N,N-dimethyltetrahydroselenophene-2-carboxamide], the Ki on hA3AR [1] is 36.3 ± 12.7 nM. In addition, the inhibition at 10 µM was found to be 43% on hA1AR and 37% at hA2AAR.

Regarding `CN(C)C(=O)[C@H]1[Se][C@@H](n2cnc3c(NCc4cccc(I)c4)ncnc32)[C@H](O)[C@@H]1O` [Compound 9f, (2S,3S,4R,5R)-3,4-dihydroxy-5-(6-((3-iodobenzyl)amino)-9H-purin-9-yl)-N,N-dimethyltetrahydroselenophene-2-carboxamide], the inhibition constant (Ki) on hA3AR [1] came to 22.7 ± 8.9 nM. For the same compound, the inhibition at 10 µM on hA1AR was 36%; on hA2AAR, 32%.

Consider `CN(C)C(=O)[C@H]1[Se][C@@H](n2cnc3c(N)nc(Cl)nc32)[C@H](O)[C@@H]1O` [Compound 9g, (2S,3S,4R,5R)-5-(2-chloro-6-amino-9H-purin-9-yl)-3,4-dihydroxy-N,N-dimethyltetrahydroselenophene-2-carboxamide], for which the Ki on hA3AR [1] is 3250 ± 370 nM. In addition, the inhibition at 10 µM at hA1AR is 9%; on hA2AAR, 3%; at hA2BAR it was 25%.

As to `CNc1nc(Cl)nc2c1ncn2[C@@H]1[Se][C@H](C(=O)N(C)C)[C@@H](O)[C@H]1O` [Compound 9h, (2S,3S,4R,5R)-5-(2-chloro-6-(methylamino)-9H-purin-9-yl)-3,4-dihydroxy-N,N-dimethyltetrahydroselenophene-2-carboxamide], the inhibitory constant (Ki) on hA3AR [1] amounted to 1060 ± 140 nM. The inhibition at 10 µM at hA1AR was determined as 58%; at hA2AAR, 5%; at hA2BAR, 19%.

`CN(C)C(=O)[C@H]1[Se][C@@H](n2cnc3c(NCc4cccc(F)c4)nc(Cl)nc32)[C@H](O)[C@@H]1O` [Compound 9i, (2S,3S,4R,5R)-5-(2-chloro-6-((3-fluorobenzyl)amino)-9H-purin-9-yl)-3,4-dihydroxy-N,N-dimethyltetrahydroselenophene-2-carboxamide]: the Ki on hA3AR [1] turned out to be 238 ± 37 nM. For the same compound, the values for the inhibition at 10 µM at hA1AR, on hA2AAR and at hA2BAR were 34%, 9% and 14%, respectively.

In the case of `CN(C)C(=O)[C@H]1[Se][C@@H](n2cnc3c(NCc4cccc(Cl)c4)nc(Cl)nc32)[C@H](O)[C@@H]1O` [Compound 9j, (2S,3S,4R,5R)-5-(2-chloro-6-((3-chlorobenzyl)amino)-9H-purin-9-yl)-3,4-dihydroxy-N,N-dimethyltetrahydroselenophene-2-carboxamide], the Ki on hA3AR [1] is 195 ± 40 nM. In addition, the inhibition at 10 µM came out at 63% at hA1AR, 13% at hA2AAR and 27% at hA2BAR.

Consider `CN(C)C(=O)[C@H]1[Se][C@@H](n2cnc3c(NCc4cccc(Br)c4)nc(Cl)nc32)[C@H](O)[C@@H]1O` [Compound 9k, (2S,3S,4R,5R)-5-(6-((3-bromobenzyl)amino)-2-chloro-9H-purin-9-yl)-3,4-dihydroxy-N,N-dimethyltetrahydroselenophene-2-carboxamide], for which the inhibitory constant (Ki) at hA3AR [1] turned out to be 180 ± 12 nM. Further, the figures for the inhibition at 10 µM on hA1AR, on hA2AAR and at hA2BAR were 58%, 10% and 27%, respectively.

With `CN(C)C(=O)[C@H]1[Se][C@@H](n2cnc3c(NCc4cccc(I)c4)nc(Cl)nc32)[C@H](O)[C@@H]1O` [Compound 9l, (2S,3S,4R,5R)-5-(2-chloro-6-((3-iodobenzyl)amino)-9H-purin-9-yl)-3,4-dihydroxy-N,N-dimethyltetrahydroselenophene-2-carboxamide], the Ki on hA3AR [1] was determined as 253 ± 29 nM. Also, the values for the inhibition at 10 µM at hA1AR, on hA2AAR and at hA2BAR were 68%, 10% and 23%, respectively. Besides, the “Behaviour in cAMP functional assay at hA3AR” value on hA3AR [2] was “antagonist activity”. This compound also showed a Kb on hA3AR [2] (inhibition of NECA-induced cAMP accumulation) of 114 nM.
